Like-named read-outs stand apart in the source and are kept apart here.
Test system: HCV replicon
Experiment: HCV replicon luciferase reporter assay
Assay type: cell-based
Set-up: scale not given here
Description: The inhibitory activity of certain exemplary compounds of the invention was confirmed using an HCV replicon assay. The HCV replicon can include such features as the HCV IRES, the HCV 3′ untranslated region, selected HCV genes encoding HCV polypeptides, selectable markers, and a reporter gene such as luciferase, GFP, etc. In the assay, actively dividing replicon-comprising cells were seeded at a density of between about 5,000 and 7,500 cells/well onto 96 well plates (about 90 μl of cells per well) and incubated at 37° C. and 5% CO2 for 24 hours. Then, the test compound (in a volume of about 10 μL) was added at various concentrations to each well and the cells were incubated for an additional 24-48 hours. The cells were harvested, and HCV replication or translation was monitored via a reporter assay, e.g., a luciferase reporter assay. The media was aspirated from each cell and Bright-Glo ([…].) luciferase assay reagents were added to each well according to the manufacturer's instructions. In this assay, the amount of test compound that yielded a 50% reduction in luciferase activity (IC50) was determined.

[1] = Hepatitis C virus, Table 5, read-out: IC50
[2] = Table 5, the head prints only IC50, b387 says Tables 5 and 6 hold Replicon reporter and Western blot results

O=[N+]([O-])c1cccc(S(=O)(=O)NCCCNc2nsc3ccccc23)c1 [Compound 242, N-(3-(benzo[d]isothiazol-3-ylamino)propyl)-3-nitrobenzenesulfonamide]
IC50 [1]: < 5 µM

COC(=O)c1ccccc1S(=O)(=O)NCCCNc1nsc2ccccc12 [Compound 243, methyl 2-(N-(3-(benzo[d]isothiazol-3-ylamino)propyl)sulfamoyl)benzoate]
IC50 [1]: < 5 µM

COC(=O)c1ccc(S(=O)(=O)NCCCNc2nsc3ccccc23)o1 [Compound 244, methyl 5-(N-(3-(benzo[d]isothiazol-3-ylamino)propyl)sulfamoyl)furan-2-carboxylate]
IC50 [1]: < 5 µM

O=S(=O)(NCCCNc1nsc2ccccc12)c1ccc(C(F)(F)F)cc1 [Compound 245, N-(3-(benzo[d]isothiazol-3-ylamino)propyl)-4-(trifluoromethyl)benzenesulfonamide]
IC50 [1]: < 5 µM

O=S(=O)(NCCCNc1nsc2ccccc12)c1cc(C(F)(F)F)cc(C(F)(F)F)c1 [Compound 246, N-(3-(benzo[d]isothiazol-3-ylamino)propyl)-3,5-bis(trifluoromethyl)benzenesulfonamide]
IC50 [1]: < 5 µM

Cc1nc(S(=O)(=O)NCCCNc2nsc3ccccc23)cn1C [Compound 248, N-(3-(benzo[d]isothiazol-3-ylamino)propyl)-1,2-dimethyl-1H-imidazole-4-sulfonamide]
IC50 [1]: < 5 µM

O=S(=O)(NCCCNc1nsc2ccccc12)c1cccc2cccnc12 [Compound 249, N-(3-(benzo[d]isothiazol-3-ylamino)propyl)quinoline-8-sulfonamide]
IC50 [1]: < 5 µM

O=S(=O)(NCCCNc1nsc2ccccc12)c1ccc(F)c(F)c1F [Compound 250, N-(3-(benzo[d]isothiazol-3-ylamino)propyl)-2,3,4-trifluorobenzenesulfonamide]
IC50 [1]: < 5 µM

COc1ccc(S(=O)(=O)NCCCNc2nsc3ccccc23)cc1 [Compound 251, N-(3-(benzo[d]isothiazol-3-ylamino)propyl)-4-methoxybenzenesulfonamide]
IC50 [1]: < 5 µM

O=C(N1CCc2ccc(S(=O)(=O)NCCCNc3nsc4ccccc34)cc2C1)C(F)(F)F [Compound 252, N-(3-(benzo[d]isothiazol-3-ylamino)propyl)-2-(2,2,2-trifluoroacetyl)-1,2,3,4-tetrahydroisoquinoline-7-sulfonamide]
IC50 (Hepatitis C virus): < 5 µM

O=S(=O)(NCCCNc1nsc2ccccc12)c1c(F)cc(F)cc1Br [Compound 253, N-(3-(benzo[d]isothiazol-3-ylamino)propyl)-2-bromo-4,6-difluorobenzenesulfonamide]
IC50 [1]: < 5 µM

O=S(=O)(c1ccccc1C(F)(F)F)N(CCCNc1nsc2ccccc12)Cc1ccccc1 [Compound 254, N-(3-(benzo[d]isothiazol-3-ylamino)propyl)-N-benzyl-2-(trifluoromethyl)benzenesulfonamide]
IC50 [1]: < 5 µM

COc1ccc(-c2ccc(CN(CCCNc3nsc4ccccc34)C(=O)CN3CCOCC3)cc2)cc1 [Compound 255, N-(3-(benzo[d]isothiazol-3-ylamino)propyl)-N-((4′-methoxybiphenyl-4-yl)methyl)-2-morpholinoacetamide]
IC50 [1]: < 5 µM

COc1ccc(-c2ccc(CN(CCCNc3nsc4ccccc34)C(=O)CN3CCN(c4ccccc4)CC3)cc2)cc1 [Compound 256, N-(3-(benzo[d]isothiazol-3-ylamino)propyl)-N-((4′-methoxybiphenyl-4-yl)methyl)-2-(4-phenylpiperazin-1-yl)acetamide]
IC50 [1]: < 5 µM

COc1ccc(-c2ccc(CN(CCCNc3nsc4ccccc34)C(=O)CNC(C)C)cc2)cc1 [Compound 257, N-(3-(benzo[d]isothiazol-3-ylamino)propyl)-2-(isopropylamino)-N-((4′-methoxybiphenyl-4-yl)methyl)acetamide]
IC50 [1]: < 5 µM

COc1ccc(NS(=O)(=O)c2ccc(CNCCCNc3nsc4ccccc34)cc2)cc1 [Compound 258, 4-((3-(benzo[d]isothiazol-3-ylamino)propylamino)methyl)-N-(4-methoxyphenyl)benzenesulfonamide]
IC50 [1]: < 5 µM

O=S(=O)(c1ccc(CNCCCNc2nsc3ccccc23)cc1)N1CCOCC1 [Compound 259, N^1-(benzo[d]isothiazol-3-yl)-N^3-(4-(morpholinosulfonyl)benzyl)propane-1,3-diamine]
IC50 [1]: > 5 µM

O=S(=O)(c1ccc(CNCCCNc2nsc3ccccc23)cc1)N1CCCC1 [Compound 260, N^1-(benzo[d]isothiazol-3-yl)-N^3-(4-(pyrrolidin-1-ylsulfonyl)benzyl)propane-1,3-diamine]
IC50 [1]: > 5 µM

COc1ccc(OC)c(S(=O)(=O)NCCCNc2nsc3ccccc23)c1 [Compound 261, N-(3-(benzo[d]isothiazol-3-ylamino)propyl)-2,5-dimethoxybenzenesulfonamide]
IC50 [1]: < 5 µM

O=S(=O)(NCCCNc1nsc2ccccc12)c1ccc(Br)cc1Cl [Compound 262, N-(3-(benzo[d]isothiazol-3-ylamino)propyl)-4-bromo-2-chlorobenzenesulfonamide]
IC50 [1]: < 5 µM

O=S(=O)(NCCCNc1nsc2ccccc12)c1ccc(Br)cc1C(F)(F)F [Compound 263, N-(3-(benzo[d]isothiazol-3-ylamino)propyl)-4-bromo-2-(trifluoromethyl)benzenesulfonamide]
IC50 [1]: < 5 µM

COc1ccc(S(=O)(=O)NCCCNc2nsc3ccccc23)cc1OC [Compound 264, N-(3-(benzo[d]isothiazol-3-ylamino)propyl)-3,4-dimethoxybenzenesulfonamide]
IC50 [1]: < 5 µM

Cc1cc(S(=O)(=O)NCCCNc2nsc3ccccc23)ccc1Br [Compound 265, N-(3-(benzo[d]isothiazol-3-ylamino)propyl)-4-bromo-3-methylbenzenesulfonamide]
IC50 [1]: < 5 µM

O=S(=O)(NCCCNc1nsc2ccccc12)c1cccc(OC(F)(F)F)c1 [Compound 266, N-(3-(benzo[d]isothiazol-3-ylamino)propyl)-3-(trifluoromethoxy)benzenesulfonamide]
IC50 [1]: < 5 µM

O=S(=O)(NCCCNc1nsc2ccccc12)c1c(Cl)cc(Br)cc1Cl [Compound 267, N-(3-(benzo[d]isothiazol-3-ylamino)propyl)-4-bromo-2,6-dichlorobenzenesulfonamide]
IC50 [1]: < 5 µM

O=S(=O)(NCCCNc1nsc2ccccc12)c1cccc(Br)c1 [Compound 268, N-(3-(benzo[d]isothiazol-3-ylamino)propyl)-3-bromobenzenesulfonamide]
IC50 [1]: < 5 µM

O=S(=O)(NCCCNc1nsc2ccccc12)c1ccc(Br)c(C(F)(F)F)c1 [Compound 269, N-(3-(benzo[d]isothiazol-3-ylamino)propyl)-4-bromo-3-(trifluoromethyl)benzenesulfonamide]
IC50 [1]: < 5 µM

COc1ccc(-c2ccc(CN(CCCNc3nsc4ccccc34)S(=O)(=O)c3ccccc3C(F)(F)F)cc2)cc1 [Compound 270, N-(3-(benzo[d]isothiazol-3-ylamino)propyl)-N-((4′-methoxybiphenyl-4-yl)methyl)-2-(trifluoromethyl)benzenesulfonamide]
IC50 [1]: < 5 µM

O=S(=O)(NCCNc1nsc2ccccc12)c1ccc(Cl)cc1 [Compound 271, N-(2-(benzo[d]isothiazol-3-ylamino)ethyl)-4-chlorobenzenesulfonamide]
IC50 [2]: A, B

c1ccc(CNCCNc2nsc3ccccc23)nc1 [Compound 272, N^1-(benzo[d]isothiazol-3-yl)-N^2-(pyridin-2-ylmethyl)ethane-1,2-diamine]
IC50 [2]: A, B

CCCc1ccc(C(=O)NCCCNc2nsc3ccccc23)cc1 [Compound 273, N-(3-(benzo[d]isothiazol-3-ylamino)propyl)-4-propylbenzamide]
IC50 [1]: < 5 µM

COc1cccnc1NCCCNc1nsc2ccccc12 [Compound 275, N^1-(benzo[d]isothiazol-3-yl)-N^3-(3-methoxypyridin-2-yl)propane-1,3-diamine]
IC50 [1]: < 5 µM

FC(F)(F)c1cccnc1NCCCNc1nsc2ccccc12 [Compound 276, N^1-(benzo[d]isothiazol-3-yl)-N^3-(3-(trifluoromethyl)pyridin-2-yl)propane-1,3-diamine]
IC50 [1]: < 5 µM

N#Cc1cccnc1NCCCNc1nsc2ccccc12 [Compound 277, 2-(3-(benzo[d]isothiazol-3-ylamino)propylamino)nicotinonitrile]
IC50 [1]: < 5 µM

Cc1cccnc1NCCCNc1nsc2ccccc12 [Compound 278, N^1-(benzo[d]isothiazol-3-yl)-N^3-(3-methylpyridin-2-yl)propane-1,3-diamine]
IC50 [1]: < 5 µM

CCCCc1ccc(C(=O)NCCNc2nsc3ccccc23)nc1 [Compound 279, N-(2-(benzo[d]isothiazol-3-ylamino)ethyl)-5-butylpicolinamide]
IC50 [1]: < 5 µM

CCCCc1ccc(C(=O)NC(CNc2nsc3ccccc23)C(=O)O)cc1 (stereo not shown) [Compound 280, 3-(benzo[d]isothiazol-3-ylamino)-2-(4-butylbenzamido)propanoic acid]
IC50 [1]: > 5 µM

Cc1cccc(NCCCNc2nsc3ccccc23)n1 [Compound 281, N^1-(benzo[d]isothiazol-3-yl)-N^3-(6-methylpyridin-2-yl)propane-1,3-diamine]
IC50 [1]: < 5 µM

COc1ccc(NCCCNc2nsc3ccccc23)nc1 [Compound 282, N^1-(benzo[d]isothiazol-3-yl)-N^3-(5-methoxypyridin-2-yl)propane-1,3-diamine]
IC50 [1]: < 5 µM

COc1cccc(NCCCNc2nsc3ccccc23)n1 [Compound 283, N^1-(benzo[d]isothiazol-3-yl)-N^3-(6-methoxypyridin-2-yl)propane-1,3-diamine]
IC50 [1]: < 5 µM
